The values that follow come from patent US20080234368A9, “Therapeutic compositions and methods of use” (Trustees of Dartmouth College, priority 1998, published 2008).

Test [1] deals with iNOS mRNA. Put plainly: Northern blot for iNOS mRNA in RAW 264.7 cells. Format: cell-based, mouse. Particulars: CDDO 10^−6 M, RAW 264.7, 12 h. As to the method: (§1) FIG. 14(A) illustrates Western blots; primary mouse macrophages; IFN-γ, 10 ng/ml; LPS, 2 ng/ml were added to cultures together with triterpenoids or dexamethasone (concentrations shown as […]); cells were harvested at 12 h. FIG. 14(B) illustrates Northern blots, RAW 264.7 macrophage-like cell line. IFN-γ, 10 ng/ml; LPS, 1 ng/ml; TNF-α, 10 ng/ml, were added to cultures together with CDDO or dexamethasone. RNA prepared after 12 h; GAPDH used as a loading control. FIG. 14(C) illustrates suppression of production of NO and PGEF in primary macrophages. For NO studies, cells were treated with IFN-γ, 10 ng/ml, together with CDDO (M), dexamethasone (O), TP-82 (□), or oleanolic acid (A). After 48 h, supernatants were analyzed for NO by the Griess reaction. For PGEF studies, cells were treated with IFN-γ, 5 ng/ml, and LPS, 5 ng/ml, together with the same set of inhibitors. After 48 h, PGE was measured in supernatants by immunoassay. Control values (no inhibition) for NO and PGE2 were 4.7 nmol/[…] and 2.2 ng/ml/2×10^5 cells, respectively. FIGS. (14D) and (14E) illustrate (human colon myofibroblasts) ^18Co cells grown in MEM/10% FBS; other methods are the same as reported above for macrophages. FIG. 14(D) illustrates Northern blots showing dose-response for suppression of COX-2 mRNA after induction with IL-1β (30 pg/ml). CDDO was added together with IL-1. […]

The test system of test [2] is PC12 pheochromocytoma cells. Put plainly: Neuronal differentiation / neurite outgrowth, image analysis. It is filed as cell-based, rat. The protocol:
CDDO induces monocytic differentiation in the poorly differentiated LCDB acute myelogenous leukemia cell line, derived from a chemotherapy-resistant patient at the NCI Pediatric Oncology Branch. FIG. 11 illustrates LCDB cells seeded in RPMI 1640/2% FBS, either alone (11A), with 2.5 ng/ml TGF-β1 (11B), with 10^−8 M CDDO (11C), or with both TGF-β1 and CDDO (11D). After 48 h, cytospin slide preparations were made and stained for α-naphthyl acetate esterase activity (kit from Sigma). PC12 cells were cultured for 5 days in gridded dishes in DMEM/10% FBS and 5% horse serum (Smith et al., 1997), either alone (11E), with 100 ng/ml 7S NGF (11F), with 10^−6 M CDDO (11G), or with both NGF and CDDO (11H). […] Methods for quantitative image analysis of size of cells and neurites have been described (De 1a Torre et al., 1997). Control cells in FIG. 11E are approximately 10 μm in diameter. 3T3-L1 cells were grown to confluency in DMEM/5% calf serum, and then treated once with CDDO in DMEM/10% FBS (FIG. 12A) or with CDDO and/or LG100268 in DMEM/10% FBS (FIG. 12B). Every two days thereafter, medium was changed to DMEM/10% FBS, without added CDD0 or LG100268. Cells were harvested on day 8 (FIG. 12A) or day 6 (FIG. 12B), and GPDH was measured in lysates, using a standard assay for consumption of NADH at 340 nm (Wise and Green, 1979).
The rat pheochromocytoma cell line, PC12, has been widely used to study neuronal development and differentiation. Treatment of these tumor cells with NGF is known to induce a neuronal phenotype, with extensive neurite outgrowth (Greene and Rischler, 1976; Guroff 1985). CDDO markedly potentiates these effects of NGF. FIGS. 11E and F show the induction of neurite outgrowth by NGF (100 ng/ml). […] When used in combination with NGF, CDDO (FIG. 11H) almost doubled the number of primary neurites/cell (from 1.2±0.2 S.E.M. to 2.1±0.1, p<0.001), and caused a greater than 3-fold increase in length of neurites (from 28±6 to 99±9 microns, p<0.001), and a 5-fold increase in neurite branching/cell (from 0.23±0.06 to 1.13±0.08, p<0.001). Thus, CDDO enhances neuronal differentiation of PC12 cells by increasing cell size, as well as the extent and complexity of neurite arborization.

In test [3] the test system is KG-1 acute myeloid leukemia cells. Put plainly: Inhibition of cell proliferation (3H-thymidine incorporation). It is filed as cell-based, human. To be noted: 3 or 4 days, 3H-thymidine 12 h. As to the method: (§2) All cells were obtained from ATCC, except as noted. They were grown under standard conditions in either DMEM, DMEM/F 12, or RPMI 1640 media plus 5-10% FBS. CDDO, over the dose range 10^−6 to 10^−10 M, was added to cultures at the time of seeding. Three or 4 days later, cells were treated with ^3H-thymidine for 2 h (12 h in the case of leukemia cells), and then incorporation was measured. “ER” means estrogen receptor.
(Dividing cells build labelled thymidine or BrdU into new DNA.)

The subject of test [4] is MCF-7 ER positive breast carcinoma cells. The test is described as above. Format: cell-based, human. To be noted: 3 or 4 days, 3H-thymidine 2 h. As to the method:
as §2

Test [5] deals with MDA-MB-231 ER negative breast carcinoma cells. Described as above. It is filed as cell-based, human. To be noted: 3 or 4 days, 3H-thymidine 2 h. As to the method:
as §2

In test [6] the test system is NT2/D1 embryonal carcinoma cells. The test is described as above. Format: cell-based, human. To be noted: 3 or 4 days, 3H-thymidine 2 h. As to the method: as §2
Test [7] concerns NB4 promyelocytic leukemia cells. The test is described as above. It is filed as cell-based, human. To be noted: 3 or 4 days, 3H-thymidine 12 h. The protocol: as §2
Test [8] relates to A2058 melanoma cells. The test is described as above. Format: cell-based, human. To be noted: 3 or 4 days, 3H-thymidine 2 h. As to the method: as §2
For test [9], the system named is ML-1 myeloblastic leukemia cells. Described as above. It is filed as cell-based, human. To be noted: 3 or 4 days, 3H-thymidine 12 h. The protocol: as §2
Test [10] deals with 21-MT-1 ER negative breast carcinoma cells. The description is as above. Particulars: 3 or 4 days, 3H-thymidine 2 h. Format: cell-based, human. As to the method:
as §2

Test [11] deals with 21-NT ER negative breast carcinoma cells. The description is as above. It is filed as cell-based, human. Particulars: 3 or 4 days, 3H-thymidine 2 h. As to the method: as §2
Test [12] concerns HL-60 myelocytic leukemia cells. The test is described as above. Format: cell-based, human. To be noted: 3 or 4 days, 3H-thymidine 12 h. As to the method:
as §2

Test [13] has as its system U937 monocytic leukemia cells. The test is described as above. Format: cell-based, human. To be noted: 3 or 4 days, 3H-thymidine 12 h. The protocol: as §2
The subject of test [14] is COX-2 mRNA. Put plainly: Northern blot for COX-2 mRNA in RAW 264.7 cells. Format: cell-based, mouse. To be noted: CDDO 10^−6 M, RAW 264.7, 12 h. As to the method:
as §1

Where [15] appears, read: CDDO 10^−6 M in combination with NGF 100 ng/ml, 5 days.

In general, IC50 refers to the midpoint of a concentration-inhibition curve. High values mean a need for much substance, low ones inhibition by little substance.

Take `CC1(C)CC[C@]2(C(=O)O)CC[C@]3(C)[C@H](C(=O)C=C4[C@@]5(C)C=C(C#N)C(=O)C(C)(C)[C@@H]5CC[C@]43C)[C@@H]2C1` [Compound 6, 2-cyano-3,12-dioxoolean-1,9-dien-28-oic acid]: in test [1], the “lowering of iNOS mRNA expression” value is on record as “greater than 75%”. The cell morphology result in test [2] (CDDO 10^−6 M by itself, 5 days) is “larger, flatter morphology”. Also, the neurite formation result in test [2] (CDDO 10^−6 M by itself, 5 days) is “does not induce neurite formation”. Moreover, the length of neurites in test [2] (setting [15]) was determined as 99±9 microns. For the same molecule, in test [2] (setting [15]), the neurite branching/cell was 1.13±0.08. Besides, in test [2] (CDDO 10^−6 M in combination with NGF 100 ng/ml, 5 days, ± S.E.M.), the “number of primary neurites/cell” value stood at 2.1±0.1. The “increase in length of neurites over NGF alone” value in [2] (CDDO in combination with NGF) is on record as “greater than 3 fold”. Besides, in [2] (CDDO in combination with NGF), the “increase in neurite branching/cell over NGF alone” value was 5 fold. Besides, the IC50 in test [3] turned out to be 0.2 µM; in test [4] it was 0.03 µM; in [5] it was 1 µM; in test [6], 0.1 µM; in test [7], 0.04 µM; in test [8] it was 0.2 µM. Further, the concentration for half-maximal inhibition (IC50) in test [9] worked out at 0.1 µM; in test [10], 0.2 µM; in test [11], 1 µM; in [12], 0.1 µM; in test [13], 0.2 µM. Besides, the “lowering of COX-2 mRNA expression” value in test [14] is reported as “greater than 75%”.
